Experiments:
Format in all cases: in vitro ADME
[1] = biological target: CYP2D6 (Homo sapiens, UniProt P10635); test: Metabolic stability in recombinant human CYP isoenzymes; set-up: purchased Cypex Ltd. (Dundee, UK); conditions: rCYP2D6 100 pmol P450/mL, 1 µM
Procedure: (§1) To identify the specific isoform that participates in the metabolism of BPI-460372, 1 µM BPI-460372 or positive control substrates were mixed with recombinant human CYP1A2, 2B6, 2C8, 2C9, 2C19, 2D6 or 3A4 (100 pmol P450·mL^-1), and the reaction was started by the addition of NADPH (1 mM final concentration) after 5-minute preincubation at 37°C. Aliquots were maintained in acetonitrile containing IS at different time points at 0 min, 5 min, 10 min, 20 min, 30 min, and 60 min. All incubations were performed in triplicate, and the concentration of the supernatant was determined by LC-MS/MS.
(§2) A substrate depletion approach was employed to determine the intrinsic clearance (CLint (rCYPj)) for each isoform. The contribution of each isoform was estimated using equations 2 and 3. CYPj abundance was evaluated as the abundance (CYPj) of each isoform in HLMs (pmol/mg protein).

[2] = biological target: T1, CYP1A2 (Homo sapiens, UniProt P05177); test: as above; set-up: purchased Cypex Ltd. (Dundee, UK); conditions: rCYP1A2 100 pmol P450/mL, 1 µM
T1 sequence (P05177 1-516): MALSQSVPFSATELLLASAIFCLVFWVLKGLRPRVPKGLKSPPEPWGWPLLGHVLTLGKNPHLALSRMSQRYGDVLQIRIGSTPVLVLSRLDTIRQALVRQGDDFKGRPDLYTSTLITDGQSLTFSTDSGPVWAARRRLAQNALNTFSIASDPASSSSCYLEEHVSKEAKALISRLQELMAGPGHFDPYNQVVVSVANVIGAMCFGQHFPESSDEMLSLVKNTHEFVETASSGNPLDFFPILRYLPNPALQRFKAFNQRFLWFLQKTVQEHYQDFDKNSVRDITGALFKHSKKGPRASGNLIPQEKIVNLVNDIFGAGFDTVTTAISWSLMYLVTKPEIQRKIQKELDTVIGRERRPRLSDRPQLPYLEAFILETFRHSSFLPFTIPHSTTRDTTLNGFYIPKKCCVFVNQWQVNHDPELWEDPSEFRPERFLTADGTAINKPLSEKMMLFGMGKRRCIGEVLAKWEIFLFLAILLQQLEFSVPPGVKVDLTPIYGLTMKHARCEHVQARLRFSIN
Procedure: as §1, §2

[3] = biological target: T1, CYP1A2; test: Metabolic stability in HLMs with or without specific CYP inhibitor (α-naphthoflavone); set-up: HLMs (1 mg protein·mL^-1); tissue BioIVT; host or cells: pooled human liver microsomes; conditions: HLMs 1 mg protein/mL, substrate 1 μM, α-naphthoflavone 2 µM
Procedure: Before starting the experiments, the HLMs were thawed gently on ice. Metabolic stability incubations were performed at 37 °C. The incubations contained 100 mM phosphate buffer saline (PBS, pH 7.4), HLMs (1 mg protein·mL^-1), dimethyl sulfoxide (DMSO, blank control) or a selective CYP inhibitor, and BPI-460372 or positive control substrates (final incubation concentration, 1 μM). The incubation process started with the addition of NADPH (1 mM final concentration) after a 5-minute preincubation period. The chemical inhibitors were as follows: a-naphthoflavone (2 µM) for CYP1A2, ticlopidine (20 µM) for 2B6, quercetin (20 µM) for CYP2C8, sulfaphenazole (20 µM) for CYP2C9, ticlopidine (200 µM) for CYP2C19, quinidine (20 µM) for CYP2D6, and ketoconazole (20 µM) for CYP3A [9]. Aliquots were maintained in acetonitrile containing internal standard (IS) at various time points, such as 0 min, 5 min, 10 min, 20 min, 30 min, and 60 min. All incubations were performed in triplicate, and the concentration in the supernatant was determined by liquid chromatography-tandem mass spectrometry (LC-MS/MS).
The elimination rate constant k (min^-1) was obtained by linear regression from the natural logarithm of the […] of the parent drug and the incubation time. The inhibition rate was calculated using equation 1 [10]: […]

Sequence of CYP2D6 (P10635 whole entry, canonical isoform): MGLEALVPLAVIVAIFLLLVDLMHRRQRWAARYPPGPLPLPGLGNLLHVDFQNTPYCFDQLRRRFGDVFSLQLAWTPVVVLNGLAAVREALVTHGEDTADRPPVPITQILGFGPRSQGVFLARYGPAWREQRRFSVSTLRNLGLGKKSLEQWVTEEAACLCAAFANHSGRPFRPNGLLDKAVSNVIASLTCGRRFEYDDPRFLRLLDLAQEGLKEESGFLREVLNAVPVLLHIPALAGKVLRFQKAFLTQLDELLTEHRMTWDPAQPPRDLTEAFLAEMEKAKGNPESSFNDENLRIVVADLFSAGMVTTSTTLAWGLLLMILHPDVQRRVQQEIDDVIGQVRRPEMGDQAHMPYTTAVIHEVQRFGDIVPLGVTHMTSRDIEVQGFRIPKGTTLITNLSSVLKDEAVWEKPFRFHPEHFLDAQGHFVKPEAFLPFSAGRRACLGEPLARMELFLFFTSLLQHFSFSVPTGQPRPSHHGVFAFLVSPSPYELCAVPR

C=C(F)C(=O)N1CC(n2c(=O)n(-c3ccc(C(F)(F)F)cc3)c3nccnc32)C1 [BPI-460372]
Contribution [1]: 43.6%
Contribution [2]: 13.1%
Inhibition Rate [3]: 32.7%

Reference: PMC12376128, “In vitro and In Vivo Drug Metabolism Analysis of BPI-460372 - A Covalent TEAD1/3/4 Inhibitor” (Current Drug Metabolism, 2025)
